Counter-ions that a name gives are not always drawn.

Experimental findings from patent US6043248A, “Alpha-substituted pyrimidine-thioalkyl and alkylether compounds as inhibitors of viral reverse transcriptase” (priority 1997, dated 2000) are described below.

The target in the first experiment is T1, viral reverse transcriptase (Wild Type) (Human immunodeficiency virus type 1 group M subtype B, UniProt P04585).
T1 construct: Viral reverse transcriptase (Wild Type) is found in extracts from bacterial clones; made in house; host or cells: Escherichia coli
The experiment can be described thus: inhibition of viral reverse transcriptase (Wild Type), cell free assay. It is filed as biochemical. The settings on record: 30 minutes at 37° C. From the text:
The utility of the pyrimidine-thioalkyl and alkylether anti-AIDS compounds of Formula IA of this invention can be determined by their ability to inhibit viral reverse transcriptase, an enzyme essential for human immunodeficiency virus replication. This enzyme has characteristics which differentiate it from other known cellular polymerases and it is a unique enzyme which is not found in uninfected cells. Viral reverse transcriptase (Wild Type) is found in extracts from bacterial clones prepared according to the procedure described in AIDS Virus Reverse Transcriptase defined by high level expression in Escherichia coli, EMBO J. 6:3133-3137 (1987). P236L viral reverse transcriptase is obtained by PNAS 90: 4713-4717 (1993). Inhibition of this enzyme is determined in a cell free assay which measures the level of radioactive precursors incorporated into DNA. Extracts prepared according to the procedure of Science, 1125-1129 (1981) are incubated in a mixture of inhibitor, 20 mM dithiothreitol, 60 mM sodium chloride, 0.05% NP-40, 10 mM magnesium chloride, 50 mM Tris pH 8.3, 10 μM [^35 S]-labeled deoxynuleoside-5'-triphosphate, 10 μg/ml RNA template (poly rC or poly rG) and 5 μg/ml DNA primer (oligo dG or oligo dT) for 30 minutes at 37° C. Incorporation of radio-labeled percursor is determined by spotting aliquots of the reaction mixture on DE81 paper, washing the papers to remove unincorporated percursor, drying and determining counts. The results (IC50 means the concentration, in μM of drug, required to inhibit the reverse transcriptase activity (P236L and Wild Type) to the extent of 50%) of various assay(s) are combined and reported as % inhibition and/or IC50 (calculated) in Table I (P236L) and Table II (Wild Type).
Take `CCCCC(Sc1nc(N)cc(Cl)n1)c1cc(C)ccn1` (stereo not drawn) [Example 224, 4-Amino-6-chloro-2-(1-(4-methyl-2-pyridyl)pentyl)thio-pyrimidine]: the “IC50 (Table II, Wild Type)” value is on record as “INACTIVE”.

The same experiment, now with this note: @ 1 μM.
On to `CC(Sc1nc(N)cc(Cl)n1)c1nccc2c1CCCC2` (stereo not drawn) [Example 235, 4-Amino-6-chloro-2-(1-(1-(5,6,7,8-tetrahydroisoquinolyl))-ethyl)thiopyrimidine], for which the inhibition at 1 µM amounted to 90%.

Compound `C=CCN(C)C(=O)/C=C/CSc1nc(N)cc(Cl)n1` [Example 201, (E)-N-allyl-N-methyl-4-[(4-amino-6-chloro-2-pyrimidinyl)thio]-2-butenamide] showed an inhibition at 1 µM of 80%.

In turn, `Cc1ccnc(C(C)(C)Sc2nc(N)cc(Cl)n2)c1` [Example 213] returned an inhibition at 1 µM of 72%.

`Nc1cc(Cl)nc(SC/C=C/C(=O)N2CCCC2)n1` [Example 199, (E)-1-[4-[(4-amino-6-chloro-2-pyrimidinyl)thio]-1-oxo-2-butenyl]pyrrolidine] returned an inhibition at 1 µM of 93%.

The compound `CC(=O)c1ccnc(C(C)Sc2nc(N)cc(Cl)n2)c1` (stereo not drawn) [Example 219, 4-Amino-6-chloro-2-(1-(4-acetyl-2-pyridyl)ethyl)thio-pyrimidine] showed an inhibition at 1 µM of 84%.

The compound `CC(Sc1nc(N)cc(Cl)n1)c1nccc2ccccc12` (stereo not drawn) [Example 232, 4-Amino-6-chloro-2-(1-(1-isoquinolyl)ethyl)thio-pyrimidine] displayed an inhibition at 1 µM of 90%.

`Nc1cc(Cl)nc(SCc2cnc3occc3c2)n1` [Example 304, 4-amino-6-chloro-2-(furo[2,3-b]pyridin-5-yl-methylthio)-pyrimidine] came in with an inhibition at 1 µM of 94%.

Compound `Cc1ccnc(C(C#N)Sc2nc(N)cc(Cl)n2)c1` (stereo not drawn) [Example 217, 4-Amino-6-chloro-2-(1-(4-methyl-2-pyridyl)-1-cyanomethyl)thio-pyrimidine] displayed an inhibition at 1 µM of 58%.

`CCCN(CCC)C(=O)/C=C/CSc1nc(N)cc(Cl)n1` [Example 202, (E)-N,N-Dipropyl-4-[(4-amino-6-chloro-2-pyrimidinyl)thio]-2-butenamide] gave an inhibition at 1 µM of 62%.

Staying with this experiment, now noted: @ 10 μM.
As to `COC(=O)/C=C(\C)C(C)Sc1nc(N)cc(Cl)n1` (stereo not drawn) [Example 209, (E)-4-[(4-Amino-6-chloro-2-pyrimidinyl)thio]-3-methyl-2-pentenoic acid methyl ester], at 10 µM the inhibition was 67%.

As to `Nc1cc(Cl)nc(SC/C=C/C(=O)N2CCCCC2)n1` [Example 197, (E)-1-[4-[(4-amino-6-chloro-2-pyrimidinyl)thio]-1-oxo-2-butenyl]piperidine], the inhibition at 10 µM was 83%.

For `CC(C)(Sc1nc(N)cc(Cl)n1)c1ccccn1` [Example 212, 4-Amino-6-chloro-2-(1-(2-pyridyl)-1-methylethyl)thio-pyrimidine], testing at 10 µM gave an inhibition of 57%.

As for `CC(Sc1nc(N)cc(Cl)n1)c1ccc2ccccc2c1` (stereo not drawn) [Example 229, 4-Amino-6-chloro-2-(1-(2-naphthalenyl)ethyl)thio-pyrimidine], testing at 10 µM gave an inhibition of 90%.

The compound `CCN(CC)Cc1ccnc(C(C)Sc2nc(N)cc(Cl)n2)c1` (stereo not drawn) [Example 228] gave an inhibition at 10 µM of 84%.

Still in this experiment, the particulars now being: @ 50 μM.
Regarding `Cc1ccnc(C(Sc2nc(N)cc(Cl)n2)C2CC2)c1` (stereo not drawn) [Example 226, 4-Amino-6-chloro-2-(1-(4-methyl-2-pyridyl)-1-cyclopropyl-methyl)thio-pyrimidine mesylate], at 50 µM the inhibition was 79%.

Compound `CC(Sc1nc(N)cc(Cl)n1)c1cc(CN2CCOCC2)ccn1` (stereo not drawn) [Example 227, 4-Amino-6-chloro-2-(1-(4-(4-morpholinyl)methyl-2-pyridyl)ethyl)thio-pyrimidine] gave an inhibition at 50 µM of 49%.

Compound `CCOC(=O)c1cc(N)nc(SCc2ccc3ccccc3c2)n1` [Example 305, 6-amino-2-(2-naphthylmethylthio)-pyrimidine-4-carboxylic acid ethyl ester] had an inhibition at 50 µM of 21%.

One may read the inhibition as the drop in the measured response relative to a control, in per cent.
